Laboratory results reported in paper PMC8230315, “A Pan-Inhibitor for Protein Arginine Methyltransferase Family Enzymes” (Biomolecules, 2021).
Read-outs that look alike come from different tables or passages of the source.

What was measured:
[1] = molecular target: T1, PRMT4 (Homo sapiens, UniProt Q86X55); conditions: cited from earlier work
T1 construct: purchased Reaction Biology
T1 sequence (Q86X55 1-608): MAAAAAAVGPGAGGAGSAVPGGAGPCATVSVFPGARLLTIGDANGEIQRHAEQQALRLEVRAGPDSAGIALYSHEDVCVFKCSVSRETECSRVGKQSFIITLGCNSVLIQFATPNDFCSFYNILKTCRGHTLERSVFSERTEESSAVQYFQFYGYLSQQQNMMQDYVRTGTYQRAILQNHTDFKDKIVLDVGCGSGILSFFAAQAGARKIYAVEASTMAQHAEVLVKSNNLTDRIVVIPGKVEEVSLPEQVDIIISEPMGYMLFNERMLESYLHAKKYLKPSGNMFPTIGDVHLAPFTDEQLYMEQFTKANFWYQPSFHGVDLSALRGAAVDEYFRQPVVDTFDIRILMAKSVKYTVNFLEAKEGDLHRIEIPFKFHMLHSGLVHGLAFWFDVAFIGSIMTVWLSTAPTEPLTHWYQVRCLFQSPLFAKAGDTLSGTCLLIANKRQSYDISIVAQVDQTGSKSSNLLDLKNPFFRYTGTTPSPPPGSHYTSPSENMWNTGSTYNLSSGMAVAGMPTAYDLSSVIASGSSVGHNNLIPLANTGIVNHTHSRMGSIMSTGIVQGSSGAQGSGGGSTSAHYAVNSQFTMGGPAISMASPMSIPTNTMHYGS

[2] = molecular target: T2, SETD7 (Homo sapiens, UniProt Q8WTS6); assay: Selectivity SAHH-coupled fluorescence assay, SETD7; type: biochemical; conditions: at 100 μM
T2 construct: made in house
T2 sequence (Q8WTS6 1-366): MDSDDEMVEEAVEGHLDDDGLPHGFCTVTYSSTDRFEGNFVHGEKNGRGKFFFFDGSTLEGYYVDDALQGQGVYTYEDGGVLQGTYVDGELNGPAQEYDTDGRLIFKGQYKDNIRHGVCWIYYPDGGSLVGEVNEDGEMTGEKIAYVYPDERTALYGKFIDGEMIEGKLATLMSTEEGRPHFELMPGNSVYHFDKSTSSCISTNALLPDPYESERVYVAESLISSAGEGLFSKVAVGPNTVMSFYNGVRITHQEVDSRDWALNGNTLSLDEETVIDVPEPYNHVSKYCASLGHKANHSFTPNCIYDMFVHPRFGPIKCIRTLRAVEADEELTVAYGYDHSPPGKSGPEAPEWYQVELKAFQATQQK
Source text: (§1) We chose the top four potent compounds (6b and 6l–n) to investigate their selectivities against several in-house methyltransferases including protein arginine methyltransferase TbPRMT7, two members of the protein lysine methyltransferase PKMT (G9a and SETD7), protein N-terminal methyltransferase 1 (NTMT1), and a small molecule methyltransferase nicotinamide N-methyltransferase (NNMT), all of which have a SAM binding site.
A fluorescence-based SAHH-coupled assay was applied to study the effect of the compound on methyltransferase activity of PRMT7, NTMT1, SETD7, G9a, NNMT, and SAHH. For PRMT7, the assay was performed in a final well volume of 100 μL: 25 mM Tris (pH = 7.5), 50 mM KCl, 0.01% Triton X-100, 5 μM SAHH, 0.2 μM PRMT7, 3 μM AdoMet, and 15 μM ThioGlo1. After incubation for 10 min with the inhibitor, reactions were initiated by the addition of 60 μM H4-21 peptide, and the reaction was monitored for 15 min. For NTMT1, the assay was performed in a final well volume of 100 μL: 25 mM Tris (pH = 7.5), 50 mM KCl, 0.01% Triton X-100, 5 μM SAHH, 0.1 μM NTMT1, 3 μM AdoMet, and 10 μM ThioGlo4. After incubation for 10 min with the inhibitor, reactions were initiated by the addition of 0.5 μM GPKRIA peptide, and the reaction was monitored for 15 min. For SETD7, the assay was performed in a final well volume of 100 μL: 25 mM potassium phosphate buffer (pH = 7.6), 0.01% Triton X-100, 5 μM SAHH, 1 μM SETD7, 2 μM AdoMet, and 10 μM ThioGlo1. After incubation for 10 min with the inhibitor, reactions were initiated by the addition of 90 μM H3-21 peptide, and the reaction was monitored for 15 min. For G9a, the assay was performed in a final well volume of 100 μL: 25 mM potassium phosphate buffer (pH = 7.6), 1 mM EDTA, 2 mM MgCl2, 0.01% Triton X-100, 5 μM SAHH, 0.1 μM His-G9a, 10 μM AdoMet, and 10 μM ThioGlo4. For NNMT, the assay was performed in a final well volume of 100 μL: 25 mM Tris (pH = 7.5), 50 mM KCl, 0.01% Triton X- 100, 5 μM SAHH, 0.1 μM NNMT, 10 μM AdoMet, and 10 μM ThioGlo1. After incubation for 10 min with the inhibitor, reactions were initiated by the addition of 10 μM nicotinamide, and the reaction was monitored for 18 min. The inhibitors were added at five concentrations: 100, 33.3, 11.1, 3.7, and 1.2 μM.

[3] = molecular target: T3, PRMT1 (Homo sapiens, UniProt Q99873); assay: SAHH-coupled fluorescence assay, PRMT1 inhibition; type: biochemical; conditions: for IC50: PRMT1 0.1 µM, n = 2, mean ± SD; for Ki: calculated as Ki, app = IC50/(1 + [S]/Km), read-out: Ki, app
T3 sequence (Q99873 whole entry, species assumed): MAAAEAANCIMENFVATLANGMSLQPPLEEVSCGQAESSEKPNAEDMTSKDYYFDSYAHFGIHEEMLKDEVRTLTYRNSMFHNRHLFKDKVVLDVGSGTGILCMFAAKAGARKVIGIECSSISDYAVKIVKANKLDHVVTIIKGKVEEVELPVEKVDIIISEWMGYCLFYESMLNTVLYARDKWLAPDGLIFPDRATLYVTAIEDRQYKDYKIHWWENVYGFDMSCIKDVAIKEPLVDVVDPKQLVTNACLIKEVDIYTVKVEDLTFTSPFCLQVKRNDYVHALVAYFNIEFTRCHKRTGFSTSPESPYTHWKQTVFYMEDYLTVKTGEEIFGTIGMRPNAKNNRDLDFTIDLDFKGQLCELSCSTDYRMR
Procedure: A fluorescence-based SAHH-coupled assay was used to evaluate the IC50 values of inhibitors by monitoring the production of SAH from SAM after methylation. […] The fluorescence signal was monitored on a BMG CLARIOstar microplate reader with excitation at 400 nm and emission at 465 nm for 18 min. Data were processed using GraphPad Prism software 7.0. All experiments were performed in duplicate.
The fluorescence signal was monitored on a BMG CLARIOstar microplate reader with excitation at 400 nm and emission at 465 nm for 18 min. Data were processed using GraphPad Prism software 7.0. All experiments were performed in duplicate. […].

[4] = molecular target: T4, TbPRMT7 (Trypanosoma brucei brucei, UniProt Q582G4); assay: Selectivity SAHH-coupled fluorescence assay, TbPRMT7; type: biochemical; conditions: at 11.1 μM
T4 construct: made in house
T4 sequence (Q582G4 whole entry): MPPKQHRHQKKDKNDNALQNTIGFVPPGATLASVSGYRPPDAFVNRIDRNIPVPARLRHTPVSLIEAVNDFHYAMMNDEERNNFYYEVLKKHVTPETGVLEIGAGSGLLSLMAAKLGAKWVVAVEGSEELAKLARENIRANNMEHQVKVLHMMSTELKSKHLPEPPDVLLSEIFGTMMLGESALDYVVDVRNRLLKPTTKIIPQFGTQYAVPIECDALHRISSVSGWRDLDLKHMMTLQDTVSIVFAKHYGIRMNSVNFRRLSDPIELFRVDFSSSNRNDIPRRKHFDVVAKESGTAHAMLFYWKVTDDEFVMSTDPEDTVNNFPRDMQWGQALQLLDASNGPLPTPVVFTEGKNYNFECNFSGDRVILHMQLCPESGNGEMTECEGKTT
Source text: as §1
A fluorescence-based SAHH-coupled assay was applied to study the effect of the compound on methyltransferase activity of PRMT7, NTMT1, SETD7, G9a, NNMT, and SAHH. For PRMT7, the assay was performed in a final well volume of 100 μL: 25 mM Tris (pH = 7.5), 50 mM KCl, 0.01% Triton X-100, 5 μM SAHH, 0.2 μM PRMT7, 3 μM AdoMet, and 15 μM ThioGlo1. After incubation for 10 min with the inhibitor, reactions were initiated by the addition of 60 μM H4-21 peptide, and the reaction was monitored for 15 min. […] After incubation for 10 min with the inhibitor, reactions were initiated by the addition of 0.5 μM GPKRIA peptide, and the reaction was monitored for 15 min. […] After incubation for 10 min with the inhibitor, reactions were initiated by the addition of 90 μM H3-21 peptide, and the reaction was monitored for 15 min. […] After incubation for 10 min with the inhibitor, reactions were initiated by the addition of 10 μM nicotinamide, and the reaction was monitored for 18 min. […]

[5] = test system: PRMT5/MEP50; set-up: method as in doi:10.1158/1538-7445.AM2018-4859; conditions: cited from earlier work
[6] = molecular target: T3, PRMT1; conditions: cited from earlier work
[7] = substrate concentration at 4 Km (footnote a)
[8] = at Km of SAM (10 µM) and H4-21 peptide (5 µM)

Compound	Ki [3]	IC50 [3, 8]	also measured
CCCNC(CCC(N)C(=O)O)C[C@H]1O[C@@H](n2cnc3c(N)ncnc32)[C@H](O)[C@@H]1O (some centres unmarked) [Pr-SNF]			IC50 [1]: 9500 nM
N=C(NCCCSC[C@H]1O[C@@H](n2cnc3c(N)ncnc32)[C@H](O)[C@@H]1O)NCc1ccc(Br)cc1 [Compound 6n, 1-(3-((((2S,3S,4R,5R)-5-(6-amino-9H-purin-9-yl)-3,4-dihydroxytetrahydrofuran-2-yl)methyl)thio)propyl)-3-(4-bromobenzyl)guanidine]	52 ± 14 nM		inhibition at 100 µM [2]: > 50%; IC50 [3, 7]: 260 ± 70 nM
N=C(NCCCSC[C@H]1O[C@@H](n2cnc3c(N)ncnc32)[C@H](O)[C@@H]1O)NCC1CCCCC1 [Compound 6e, 1-(3-((((2S,3S,4R,5R)-5-(6-amino-9H-purin-9-yl)-3,4-dihydroxytetrahydrofuran-2-yl)methyl)thio)propyl)-3-(cyclohexylmethyl)guanidine]	60 ± 13 nM	120 ± 26 nM	
N=C(NCCCSC[C@H]1O[C@@H](n2cnc3c(N)ncnc32)[C@H](O)[C@@H]1O)Nc1ccccc1 [Compound 6f, 1-(3-((((2S,3S,4R,5R)-5-(6-amino-9H-purin-9-yl)-3,4-dihydroxytetrahydrofuran-2-yl)methyl)thio)propyl)-3-phenylguanidine]	150 ± 5 nM	290 ± 10 nM	fold reduction of PRMT1 inhibition compared to 6d ([3]; ratio of IC50 values): about 2.5 fold
N=C(NCCCSC[C@H]1O[C@@H](n2cnc3c(N)ncnc32)[C@H](O)[C@@H]1O)NCc1ccccc1 [Compound 6g, 1-(3-((((2S,3S,4R,5R)-5-(6-amino-9H-purin-9-yl)-3,4-dihydroxytetrahydrofuran-2-yl)methyl)thio)propyl)-3-benzylguanidine]	360 ± 75 nM	720 ± 150 nM	
N=C(NCCCSC[C@H]1O[C@@H](n2cnc3c(N)ncnc32)[C@H](O)[C@@H]1O)NC1CCCC1 [Compound 6c, 1-(3-((((2S,3S,4R,5R)-5-(6-amino-9H-purin-9-yl)-3,4-dihydroxytetrahydrofuran-2-yl)methyl)thio)propyl)-3-cyclopentylguanidine]	110 ± 8 nM	220 ± 16 nM	
N=C(NCCCSC[C@H]1O[C@@H](n2cnc3c(N)ncnc32)[C@H](O)[C@@H]1O)NC1CCCCC1 [Compound 6d, 1-(3-((((2S,3S,4R,5R)-5-(6-amino-9H-purin-9-yl)-3,4-dihydroxytetrahydrofuran-2-yl)methyl)thio)propyl)-3-cyclohexylguanidine]	55 ± 24 nM	110 ± 48 nM	
N=C(NCCCSC[C@H]1O[C@@H](n2cnc3c(N)ncnc32)[C@H](O)[C@@H]1O)Nc1ccccc1[N+](=O)[O-] [Compound 6j, 1-(3-((((2S,3S,4R,5R)-5-(6-amino-9H-purin-9-yl)-3,4-dihydroxytetrahydrofuran-2-yl)methyl)thio)propyl)-3-(2-nitrophenyl)guanidine]	110 ± 5 nM	210 ± 10 nM	
N=C(NCCCSC[C@H]1O[C@@H](n2cnc3c(N)ncnc32)[C@H](O)[C@@H]1O)NC1CCC1 [Compound 6b, 1-(3-((((2S,3S,4R,5R)-5-(6-amino-9H-purin-9-yl)-3,4-dihydroxytetrahydrofuran-2-yl)methyl)thio)propyl)-3-cyclobutylguanidine]	45 ± 5 nM		inhibition at 100 µM [2]: > 50%; inhibitory activity against PRMT7 [4]: no inhibitory activity; IC50 [3, 7]: 230 ± 20 nM
N=C(NCCCSC[C@H]1O[C@@H](n2cnc3c(N)ncnc32)[C@H](O)[C@@H]1O)NCCc1ccccc1 [Compound 6h, 1-(3-((((2S,3S,4R,5R)-5-(6-amino-9H-purin-9-yl)-3,4-dihydroxytetrahydrofuran-2-yl)methyl)thio)propyl)-3-phenethylguanidine]	110 ± 30 nM	210 ± 60 nM	
N=C(NCCCSC[C@H]1O[C@@H](n2cnc3c(N)ncnc32)[C@H](O)[C@@H]1O)NCCCc1ccccc1 [Compound 6i, 1-(3-((((2S,3S,4R,5R)-5-(6-amino-9H-purin-9-yl)-3,4-dihydroxytetrahydrofuran-2-yl)methyl)thio)propyl)-3-(3-phenylpropyl)guanidine]	170 ± 55 nM	330 ± 110 nM	
N=C(NCCCSC[C@H]1O[C@@H](n2cnc3c(N)ncnc32)[C@H](O)[C@@H]1O)Nc1ccc(Br)cc1 [Compound 6m, 1-(3-((((2S,3S,4R,5R)-5-(6-amino-9H-purin-9-yl)-3,4-dihydroxytetrahydrofuran-2-yl)methyl)thio)propyl)-3-(4-bromophenyl)guanidine]	58 ± 7 nM		inhibition at 100 µM [2]: > 50%; IC50 [3, 7]: 290 ± 40 nM
N=C(N)NCCCCN(CCC(N)C(=O)O)C[C@H]1O[C@@H](n2cnc3c(N)ncnc32)[C@H](O)[C@@H]1O (some centres unmarked) [JD-16]			IC50 [6]: 3000 nM
CCNC(=N)NCCCSC[C@H]1O[C@@H](n2cnc3c(N)ncnc32)[C@H](O)[C@@H]1O [Compound 6a, 1-(3-((((2S,3S,4R,5R)-5-(6-amino-9H-purin-9-yl)-3,4-dihydroxytetrahydrofuran-2-yl)methyl)thio)propyl)-3-ethylguanidine]	310 ± 40 nM	620 ± 80 nM	
